From US7105669B1, “Quinazoline derivatives” (AstraZeneca AB, priority 1999, dated 2006)

Key:
aurora2 kinase = molecular target: T1, aurora2 kinase (Homo sapiens, UniProt O14965); assay: In vitro aurora2 kinase inhibition test; format: biochemical
T1 construct: made in house; host or cells: Spodoptera frugiperda Sf21 insect cells (baculovirus, pFastBac HTc)
T1 sequence (O14965 1-403): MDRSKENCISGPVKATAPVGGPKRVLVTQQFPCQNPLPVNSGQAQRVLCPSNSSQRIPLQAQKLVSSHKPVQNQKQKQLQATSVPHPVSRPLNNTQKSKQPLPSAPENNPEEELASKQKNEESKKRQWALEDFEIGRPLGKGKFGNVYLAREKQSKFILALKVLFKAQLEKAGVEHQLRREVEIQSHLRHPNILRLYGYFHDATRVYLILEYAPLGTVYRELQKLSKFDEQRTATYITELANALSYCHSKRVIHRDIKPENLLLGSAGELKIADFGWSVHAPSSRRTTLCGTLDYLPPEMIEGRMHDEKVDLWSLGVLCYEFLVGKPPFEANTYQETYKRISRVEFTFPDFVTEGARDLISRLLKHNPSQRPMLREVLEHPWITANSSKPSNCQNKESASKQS

MCF-7 cells [1] = assay: In vitro cell proliferation assay, Assay 1 (CyQUANT cell density); format: cell-based; details: Homo sapiens, MCF7, 72 h, MCF-7, 3 days with compound, read-out: concentration giving 50% inhibition of cell proliferation
From the text: (§1) These and other assays can be used to determine the ability of a test compound to inhibit the growth of adherent mammalian cell lines, for example the human tumour cell line MCF7.
MCF-7 (ATCC HTB-22) or other adherent cells were typically seeded at 1×10^3 cells per well (excluding the peripheral wells) in DMEM (Sigma Aldrich) without phenol red, plus 10% foetal calf serum, 1% L-glutamine and 1% penicillin/streptomycin in 96 well tissue culture treated clear plates (Costar). The following day (day 1), the media was removed from a no treatment control plate and the plate stored at −80° C. The remaining plates were dosed with compound (diluted from 10 mM stock in DMSO using DMEM (without phenol red, 10% FCS, 1% L-glutamine, 1% penicillin/streptomycin). Untreated control wells were included on each plate. After 3 days in the presence/absence of compound (day 4) the media was removed and the plates stored at −80° C. Twenty four hours later the plates were thawed at room temperature and cell density determined using the CyQUANT cell proliferation assay kit (c-7026/c-7027 Molecular Probes Inc.) according to manufacturers directions. Briefly, 200 μl of a cell lysis/dye mixture (10 μl of 20× cell lysis buffer B, 190 μl of sterile water, 0.25 μl of CYQUANT GR dye) was added to each well and the plates incubated at room temperature for 5 minutes in the dark. […]

MCF-7 cells [2] = assay: In vitro cell proliferation assay, Assay 2 (BrdU incorporation); format: cell-based; details: Homo sapiens, MCF7; MCF-7, 48 hours with compound, 2 hour BrdU labelling; read-out: concentration giving 50% inhibition of BrdU incorporation
From the text: as §1
This assay determines the ability of a test compound to inhibit the incorporation of the thymidine analogue, 5′-bromo-2′-deoxy-uridine (BrdU) into cellular DNA. MCF-7 or other adherent cells were typically seeded at 0.8×10^4 cells per well in DMEM (Sigma Aldrich) without phenol red, plus 10% foetal calf serum, 1% L-glutamine and 1% penicillin/streptomycin (50 μl/well) in 96 well tissue culture treated 96 well plates (Costar) and allowed to adhere overnight. […] The optical density of the wells was then determined at 690 nm wavelength using a Titertek Multiscan plate reader. […]

MCF7 cells = assay: In vitro cell cycle analysis assay (FACS, propidium iodide); format: cell-based, human; details: 12.76 μM, 24 hours
Protocol: This assay determines the ability of a test compound to arrest cells in specific phases of the cell cycle. Many different mammalian cell lines could be used in this assay and MCF7 cells are included here as an example. MCF-7 cells were seeded at 3×10^5 cells per T25 flask (Costar) in 5 ml DMEM (no phenol red 10% FCS, 1% L-glutamine 1% penicillin/streptomycin). Flasks were then incubated overnight in a humidified 37° C. incubator with 5% CO2. The following day 1 ml of DMEM (no phenol red 10% FCS, 1% L-glutamine 1% penicillin/streptomycin) carrying the appropriate concentration of test compound solubilised in DMSO was added to the flask. A no compound control treatments was also included (0.5% DMSO). The cells were then incubated for a defined time (usually 24 hours) with compound. After this time the media was aspirated from the cells and they were washed with 5 ml of prewarmed (37° C.) sterile PBSA, then detached from the flask by brief incubation with trypsin and followed by resuspension in 10 ml of 1% Bovine Serum Albumin (BSA, Sigma-Aldrich Co.) in sterile PBSA. The samples were then centrifuged at 2200 rpm for 10 min. The supernatant was aspirated and the cell pellet was resuspended in 200 μl of 0.1% (w/v) Tris sodium citrate, 0.0564% (w/v) NaCl, 0.03% (v/v) Nonidet NP40, [pH 7.6]. Propridium Iodide (Sigma Aldrich Co.) was added to 40 μg/ml and RNAase A (Sigma Alrich Co.) to 100 μg/ml. The cells were then incubated at 37° C. for 30 minutes. The samples were centrifuged at 2200 rpm for 10 min, the supernatant removed and the remaining pellet (nuclei) resuspended in 200 μl of sterile PBSA. […] The samples were then transferred to LPS tubes and DNA content per cell analysed by Fluorescence activated cell sorting (FACS) using a FACScan flow cytometer (Becton Dickinson). Typically 25000 events were counted and recorded using CellQuest v1.1 software (Verity Software). Cell cycle distribution of the population was calculated using Modfit software (Verity Software) and expressed as percentage of cells in G0/G1, S and G2/M phases of the cell cycle. […]

COc1cc2ncnc(Nc3ccc(/C=C/C(=O)NC4CCCC(C)C4)cc3)c2cc1OC (stereo not drawn) [Compound 18]
IC50 (aurora2 kinase): 0.117 µM
IC50 (MCF-7 cells [1]): 6.38 µM
IC50 (MCF-7 cells [2]): 2.47 µM
% Cells in G1 (MCF7 cells): 30.96%
% Cells in G2/M (MCF7 cells): 49.62%
% Cells in S (MCF7 cells): 19.42%
